Experimental data published in patent US20230015478A1, “GLP-1 RECEPTOR AGONISTS HAVING IMPROVED PHARMACOLOGICAL AND DRUG DELIVERY PROPERTIES” (priority 2021, published 2023).
Numbered stars: 1 amine (or outer) side, 2 acyl side, 3 side chain; on linkers, the order of the positions; unused ones are H or OH. Square brackets hold non-standard residues; d marks the D form. Side chains are listed from the residue outwards. Peptide text beside a SMILES is read from it. * marks the point of attachment. Dap(Nα-HOOC(CH2)16CO)OH = O=C(O)CCCCCCCCCCCCCCCCC(=O)N[C@@H](CN*)C(=O)O; Bip = N[C@@H](Cc1ccc(-c2ccccc2)cc1)C(=O)O; C18 diacid = O=C(O)CCCCCCCCCCCCCCCCC(=O)*; Hydrocinnamoyl(4-I) = O=C(CCc1ccc(I)cc1)*; X2 = O=C(CCc1ccc(I)cc1)N[C@@H](CN*)C(=O)O; αMePhe(2-F) = C[C@](N)(Cc1ccccc1F)C(=O)O; γGlu = O=C(O)[C@H](CCC(=O)[*:2])N[*:1]; αMeP = C[C@@]1(C(=O)O)CCCN1; AEEA = NCCOCCOCC(=O)O; Aib = CC(C)(N)C(=O)O

The molecules below were run against T1, hGLP1 receptor (Homo sapiens, UniProt P43220) (assay: cAMP HTRF agonist assay in HEK cells co-expressing hGLP1 receptor and CRE-Luciferase). Details: cAMP EC50, nM (0.1% albumin), Table 6; 0.1% albumin.
T1 construct: expressed in transfected cells; host or cells: HEK (human embryonic kidney) cells co-expressing hGLP1 receptor and CRE-Luciferase
Type: cell-based
Procedure, shortened: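 HEK cells co-expressing hGLP1R and CRE-luciferase, 1000 cells/well in DPBS with 500 μM IBMX, exposed to peptides or exendin-4 reference for 30 min; 11-point 1:3 series from top 1.0 μM. cAMP measured by HTRF (665/615 nm) after 1 h at room temperature; EC50 from 4-parameter logistic fit.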

T1 sequence (P43220 24-463): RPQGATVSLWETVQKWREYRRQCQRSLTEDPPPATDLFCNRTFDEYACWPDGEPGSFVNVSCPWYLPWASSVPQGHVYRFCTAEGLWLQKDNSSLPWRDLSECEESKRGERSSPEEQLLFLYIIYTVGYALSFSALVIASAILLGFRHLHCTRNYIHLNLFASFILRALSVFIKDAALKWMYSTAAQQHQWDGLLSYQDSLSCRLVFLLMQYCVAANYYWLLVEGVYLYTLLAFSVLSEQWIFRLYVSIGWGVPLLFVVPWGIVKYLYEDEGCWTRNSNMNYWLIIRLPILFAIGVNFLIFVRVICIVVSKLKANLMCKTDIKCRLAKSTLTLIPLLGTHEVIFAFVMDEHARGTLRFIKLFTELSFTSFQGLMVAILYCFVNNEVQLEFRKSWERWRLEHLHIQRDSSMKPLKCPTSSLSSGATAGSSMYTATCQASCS

Question: With `C[C@@H](O)[C@H](NC(=O)CNC(=O)[C@H](CCC(=O)O)NC(=O)C(C)(C)NC(=O)[C@@H](N)Cc1c[nH]cn1)C(=O)N[C@@](C)(Cc1ccccc1F)C(=O)N[C@H](C(=O)N[C@@H](CO)C(=O)N[C@@H](CC(=O)O)C(=O)N[C@@H](Cc1ccc(-c2ccccc2)cc1)C(=O)N[C@@H](Cc1ccc(-c2ccccc2)cc1)C(=O)N[C@@H](CCCCNC(=O)COCCOCCNC(=O)CC[C@H](NC(=O)CCCCCCCCCCCCCCCCC(=O)O)C(=O)O)C(N)=O)[C@@H](C)O` [4-48, H2N-His-Aib-Glu-Gly-Thr-α-MePhe(2-F)-Thr-Ser-Asp-Bip-Bip-C(0)NH-RY10] (H-H[Aib]EGT[αMePhe(2-F)]TSD[Bip][Bip]K([AEEA-γGlu-C18 diacid])-NH2) as the molecule, how does the EC50 read?
Answer: 9.7 nM

Question: `C[C@@H](O)[C@H](NC(=O)CNC(=O)[C@H](CCC(=O)O)NC(=O)C(C)(C)NC(=O)[C@@H](N)Cc1c[nH]cn1)C(=O)N[C@@](C)(Cc1ccccc1F)C(=O)N[C@H](C(=O)N[C@@H](CO)C(=O)N[C@@H](CC(=O)O)C(=O)N[C@@H](Cc1ccc(-c2ccccc2)cc1)C(=O)N[C@@H](Cc1ccc(-c2ccccc2)cc1)C(=O)N[C@@H](CCCCNC(=O)COCCOCCNC(=O)COCCOCCNC(=O)CC[C@H](NC(=O)CCCCCCCCCCCCCCCCC(=O)O)C(=O)O)C(N)=O)[C@@H](C)O` [4-49, H2N-His-Aib-Glu-Gly-Thr-α-MePhe(2-F)-Thr-Ser-Asp-Bip-Bip-C(O)NH-RY11] (H-H[Aib]EGT[αMePhe(2-F)]TSD[Bip][Bip]K([AEEA-AEEA-γGlu-C18 diacid])-NH2) was tested. Which EC50 did it give?
Answer: 5 nM

Question: Which EC50 does the source give for `C[C@@H](O)[C@H](NC(=O)CNC(=O)[C@H](CCC(=O)O)NC(=O)C(C)(C)NC(=O)[C@@H](N)Cc1c[nH]cn1)C(=O)N[C@@](C)(Cc1ccccc1F)C(=O)N[C@H](C(=O)N[C@@H](CO)C(=O)N[C@@H](CC(=O)O)C(=O)N[C@@H](Cc1ccc(-c2ccccc2)cc1)C(=O)N[C@@H](Cc1ccc(-c2ccccc2)cc1)C(=O)N[C@@H](CCCCNC(=O)COCCOCCNC(=O)COCCOCCNC(=O)COCCOCCNC(=O)CC[C@H](NC(=O)CCCCCCCCCCCCCCCCC(=O)O)C(=O)O)C(N)=O)[C@@H](C)O` [4-50, H2N-His-Aib-Glu-Gly-Thr-α-MePhe(2-F)-Thr-Ser-Asp-Bip-Bip-C(O)NH-RY12] (H-H[Aib]EGT[αMePhe(2-F)]TSD[Bip][Bip]K([AEEA-AEEA-AEEA-γGlu-C18 diacid])-NH2) here?
Answer: 12 nM

Question: With `C[C@@H](O)[C@H](NC(=O)CNC(=O)[C@H](CCC(=O)O)NC(=O)C(C)(C)NC(=O)[C@@H](N)Cc1c[nH]cn1)C(=O)N[C@@](C)(Cc1ccccc1F)C(=O)N[C@H](C(=O)N[C@@H](CO)C(=O)N[C@@H](CC(=O)O)C(=O)N[C@@H](Cc1ccc(-c2ccccc2)cc1)C(=O)N[C@@H](Cc1ccc(-c2ccccc2)cc1)C(=O)NCCOCCOCC(=O)NCCOCCOCC(=O)NCCOCCOCC(=O)N[C@@H](CCCCN)C(N)=O)[C@@H](C)O` [4-57, H2N-His-Aib-Glu-Gly-Thr-α-MePhe(2-F)-Thr-Ser-Asp-Bip-Bip-C(O)NH-RY13] (H-H[Aib]EGT[αMePhe(2-F)]TSD[Bip][Bip][AEEA][AEEA][AEEA]K-NH2) as the molecule, how does the EC50 read?
Answer: 14 nM

Question: With `C[C@@H](O)[C@H](NC(=O)CNC(=O)[C@H](CCC(=O)O)NC(=O)C(C)(C)NC(=O)[C@@H](N)Cc1c[nH]cn1)C(=O)N[C@@](C)(Cc1ccccc1F)C(=O)N[C@H](C(=O)N[C@@H](CO)C(=O)N[C@@H](CC(=O)O)C(=O)N[C@@H](Cc1ccc(-c2ccccc2)cc1)C(=O)N[C@@H](Cc1ccc(-c2ccccc2)cc1)C(=O)NCC(=O)NCC(=O)NCC(=O)N[C@@H](CCCCN)C(N)=O)[C@@H](C)O` [4-58, H2N-His-Aib-Glu-Gly-Thr-α-MePhe(2-F)-Thr-Ser-Asp-Bip-Bip-C(O)NH-RY14] (H-H[Aib]EGT[αMePhe(2-F)]TSD[Bip][Bip]GGGK-NH2) as the molecule, how does the EC50 read?
Answer: 7.7 nM

Question: How did the EC50 turn out when `C[C@@H](O)[C@H](NC(=O)CNC(=O)[C@H](CCC(=O)O)NC(=O)[C@]1(C)CCCN1C(=O)[C@@H](N)Cc1c[nH]cn1)C(=O)N[C@@](C)(Cc1ccccc1F)C(=O)N[C@H](C(=O)N[C@@H](CO)C(=O)N[C@@H](CC(=O)O)C(=O)N[C@@H](Cc1ccc(-c2ccccc2)cc1)C(=O)N[C@@H](Cc1ccc(-c2ccccc2)cc1)C(=O)NCCOCCOCC(=O)NCCOCCOCC(=O)NCCOCCOCC(=O)NC[C@H](NC(=O)CCc1ccc(I)cc1)C(=O)O)[C@@H](C)O` [4-59, H2N-His-α-MePro -Glu-Gly-Thr-α-MePhe(2-F)-Thr-Ser-Asp-Bip-Bip-C(O)NH-RY15] (H-H[αMeP]EGT[αMePhe(2-F)]TSD[Bip][Bip][AEEA][AEEA][AEEA]-X2) was run?
Answer: 1.3 nM

Question: For `C[C@@H](O)[C@H](NC(=O)CNC(=O)[C@H](CCC(=O)O)NC(=O)[C@]1(C)CCCN1C(=O)[C@@H](N)Cc1c[nH]cn1)C(=O)N[C@@](C)(Cc1ccccc1F)C(=O)N[C@H](C(=O)N[C@@H](CO)C(=O)N[C@@H](CC(=O)O)C(=O)N[C@@H](Cc1ccc(-c2ccccc2)cc1)C(=O)N[C@@H](Cc1ccc(-c2ccccc2)cc1)C(=O)NCCOCCOCC(=O)NCCOCCOCC(=O)NC[C@H](NC(=O)CCCCCCCCCCCCCCCCC(=O)O)C(=O)O)[C@@H](C)O` [4-60, H2N-His-α-MePro-Glu-Gly-Thr-α-MePhe(2-F)-Thr-Ser-Asp-Bip-Bip-C(O)NH-RY16] (H-H[αMeP]EGT[αMePhe(2-F)]TSD[Bip][Bip][AEEA][AEEA]-{Dap(Nα-HOOC(CH2)16CO)OH}), which EC50 is on record?
Answer: 2.2 nM

Question: `C[C@@H](O)[C@H](NC(=O)CNC(=O)[C@H](CCC(=O)O)NC(=O)[C@]1(C)CCCN1C(=O)[C@@H](N)Cc1c[nH]cn1)C(=O)N[C@@](C)(Cc1ccccc1F)C(=O)N[C@H](C(=O)N[C@@H](CO)C(=O)N[C@@H](CC(=O)O)C(=O)N[C@@H](Cc1ccc(-c2ccccc2)cc1)C(=O)N[C@@H](Cc1ccc(-c2ccccc2)cc1)C(=O)N[C@@H](CCCCNC(=O)COCCOCCNC(=O)COCCOCCNC(=O)CC[C@H](NC(=O)CCCCCCCCCCCCCCCCC(=O)O)C(=O)O)C(N)=O)[C@@H](C)O` [4-61, H2N-His-α-MePro-Glu-Gly-Thr-α-MePhe(2-F)-Thr-Ser-Asp-Bip-Bip-C(O)NH-RY17] (H-H[αMeP]EGT[αMePhe(2-F)]TSD[Bip][Bip]K([AEEA-AEEA-γGlu-C18 diacid])-NH2) was tested. Which EC50 did it give?
Answer: 272 nM

Question: How did the EC50 turn out when `C[C@@H](O)[C@H](NC(=O)CNC(=O)[C@H](CCC(=O)O)NC(=O)[C@]1(C)CCCN1C(=O)[C@@H](N)Cc1c[nH]cn1)C(=O)N[C@@](C)(Cc1ccccc1F)C(=O)N[C@H](C(=O)N[C@@H](CO)C(=O)N[C@@H](CC(=O)O)C(=O)N[C@@H](Cc1ccc(-c2ccccc2)cc1)C(=O)N[C@@H](Cc1ccc(-c2ccccc2)cc1)C(=O)NC(C)(C)C(=O)NCCOCCOCC(=O)NCCOCCOCC(=O)NCCOCCOCC(=O)NC[C@H](NC(=O)CCc1ccc(I)cc1)C(=O)O)[C@@H](C)O` [4-62, H2N-His-α-MePro-Glu-Gly-Thr-α-MePhe(2-F)-Thr-Ser-Asp-Bip-Bip-C(O)NH-RY18] (H-H[αMeP]EGT[αMePhe(2-F)]TSD[Bip][Bip][Aib][AEEA][AEEA][AEEA]-X2) was run?
Answer: 1.4 nM

Question: Which EC50 does the source give for `C[C@@H](O)[C@H](NC(=O)CNC(=O)[C@H](CCC(=O)O)NC(=O)[C@]1(C)CCCN1C(=O)[C@@H](N)Cc1c[nH]cn1)C(=O)N[C@@](C)(Cc1ccccc1F)C(=O)N[C@H](C(=O)N[C@@H](CO)C(=O)N[C@@H](CC(=O)O)C(=O)N[C@@H](Cc1ccc(-c2ccccc2)cc1)C(=O)N[C@@H](Cc1ccc(-c2ccccc2)cc1)C(=O)NC(C)(C)C(=O)NCCOCCOCC(=O)NCCOCCOCC(=O)NC[C@H](NC(=O)CCCCCCCCCCCCCCCCC(=O)O)C(=O)O)[C@@H](C)O` [4-63, H2N-His-α-MePro-Glu-Gly-Thr-α-MePhe(2-F)-Thr-Ser-Asp-Bip-Bip-C(O)NH-RY19] (H-H[αMeP]EGT[αMePhe(2-F)]TSD[Bip][Bip][Aib][AEEA][AEEA]-{Dap(Nα-HOOC(CH2)16CO)OH}) here?
Answer: 1.2 nM

Question: Which EC50 does the source give for `C[C@@H](O)[C@H](NC(=O)CNC(=O)[C@H](CCC(=O)O)NC(=O)[C@]1(C)CCCN1C(=O)[C@@H](N)Cc1c[nH]cn1)C(=O)N[C@@](C)(Cc1ccccc1F)C(=O)N[C@H](C(=O)N[C@@H](CO)C(=O)N[C@@H](CC(=O)O)C(=O)N[C@@H](Cc1ccc(-c2ccccc2)cc1)C(=O)N[C@@H](Cc1ccc(-c2ccccc2)cc1)C(=O)NC(C)(C)C(=O)N[C@@H](CCCCNC(=O)COCCOCCNC(=O)COCCOCCNC(=O)CC[C@H](NC(=O)CCCCCCCCCCCCCCCCC(=O)O)C(=O)O)C(N)=O)[C@@H](C)O` [4-64, H2N-His-α-MePro-Glu-Gly-Thr-α-MePhe(2-F)-Thr-Ser-Asp-Bip-Bip-C(O)NH.RY20] (H-H[αMeP]EGT[αMePhe(2-F)]TSD[Bip][Bip][Aib]K([AEEA-AEEA-γGlu-C18 diacid])-NH2) here?
Answer: 453 nM

Question: With `C[C@@H](O)[C@H](NC(=O)CNC(=O)[C@H](CCC(=O)O)NC(=O)[C@]1(C)CCCN1C(=O)[C@@H](N)Cc1c[nH]cn1)C(=O)N[C@@](C)(Cc1ccccc1F)C(=O)N[C@H](C(=O)N[C@@H](CO)C(=O)N[C@@H](CC(=O)O)C(=O)N[C@@H](Cc1ccc(-c2ccccc2)cc1)C(=O)N[C@@H](Cc1ccc(-c2ccccc2)cc1)C(=O)NCCOCCOCC(=O)N[C@@H](CCCCNC(=O)CCc1ccc(I)cc1)C(N)=O)[C@@H](C)O` [4-66, H2N-His-α-MePro-Glu-Gly-Thr-α-MePhe(2-F)-Thr-Ser-Asp-Bip-Bip-C(O)NH-RY22] (H-H[αMeP]EGT[αMePhe(2-F)]TSD[Bip][Bip][AEEA]K(Hydrocinnamoyl(4-I))-NH2) as the molecule, how does the EC50 read?
Answer: 2.9 nM

Question: How did the EC50 turn out when `C[C@@H](O)[C@H](NC(=O)CNC(=O)[C@H](CCC(=O)O)NC(=O)[C@]1(C)CCCN1C(=O)[C@@H](N)Cc1c[nH]cn1)C(=O)N[C@@](C)(Cc1ccccc1F)C(=O)N[C@H](C(=O)N[C@@H](CO)C(=O)N[C@@H](CC(=O)O)C(=O)N[C@@H](Cc1ccc(-c2ccccc2)cc1)C(=O)N[C@@H](Cc1ccc(-c2ccccc2)cc1)C(=O)NCC(=O)NCC(=O)NCC(=O)N[C@@H](CCCCNC(=O)CCc1ccc(I)cc1)C(N)=O)[C@@H](C)O` [4-67, H2N-His-α-MePro-Glu-Gly-Thr-α-MePhe(2-F)-Thr-Ser-Asp-Bip-Bip-C(O)NH-RY23] (H-H[αMeP]EGT[αMePhe(2-F)]TSD[Bip][Bip]GGGK(Hydrocinnamoyl(4-I))-NH2) was run?
Answer: 2.4 nM
